This is an account of results in US20230002373A1, “COMPOUNDS AND COMPOSITIONS FOR TREATING CONDITIONS ASSOCIATED WITH STING ACTIVITY” (IFM Due, Inc., priority 2019, published 2023).

This experiment concerns the target T1, hSTING (Homo sapiens, UniProt Q86WV6, G230A/H232R/R293Q/R71H).
T1 construct: host or cells: THP1-Dual KO-IFNAR2 cells
The experiment in a line: STING reporter assay (luciferase) in THP1-Dual KO-IFNAR2 cells stimulated with 2′3′cGAMP. Format: cell-based. The settings on record: 15 μM 2′3′cGAMP, 24 h. The procedure:
STING pathway activation by the compounds described herein was measured using THP1-Dual™ cells (KO-IFNAR2).
THP1-Dual™ KO-IFNAR2 Cells (obtained from invivogen) were maintained in RPMI, 10% FCS, 5 ml P/S, 2 mM L-glut, 10 mM Hepes, and 1 mM sodium pyruvate. Compounds were spotted in empty 384 well tissue culture plates (Greiner 781182) by Echo for a final concentration of 0.0017-100 μM. Cells were plated into the TC plates […], 2×10E6 cells/mL. For activation with STING ligand, 2′3′cGAMP (MW 718.38, obtained from Invivogen), was prepared in Optimem media.
The following solutions were prepared for each 1×384 plate: • Solution A: 2 mL Optimem with one of the following stimuli: • 60 μL of 10 mM 2′3′cGAMP->150 μM stock • Solution B: 2 mL Optimem with 60 μL Lipofectamine 2000->Incubate 5 min at RT
2 mL of solution A and 2 ml Solution B was mixed and incubated for 20 min at room temperature (RT). 20 uL of transfection solution (A+B) was added on top of the plated cells, with a final 2′3′cGAMP concentration of 15 μM. The plates were then centrifuged immediately at 340 g for 1 minute, after which they were incubated at 37° C., 5% CO2, >98% humidity for 24 h. Luciferase reporter activity was then measured. EC50 values were calculated by using standard methods known in the art.
Luciferase reporter assay: 10 μL of supernatant from the assay was transferred to white 384-plate with flat bottom and squared wells. One pouch of QUANTI-Luc™ Plus was dissolved in 25 mL of water. 100 μL of QLC Stabilizer per 25 mL of QUANTI-Luc™ Plus solution was added. 50 μL of QUANTI-Luc™ Plus/QLC solution per well was then added. Luminescence was measured on a Platereader (e.g., Spectramax I3X (Molecular Devices GF3637001)).
Luciferase reporter activity was then measured. EC50 values were calculated by using standard methods known in the art.

T1 sequence (Q86WV6 whole entry R71H/G230A/H232R/R293Q): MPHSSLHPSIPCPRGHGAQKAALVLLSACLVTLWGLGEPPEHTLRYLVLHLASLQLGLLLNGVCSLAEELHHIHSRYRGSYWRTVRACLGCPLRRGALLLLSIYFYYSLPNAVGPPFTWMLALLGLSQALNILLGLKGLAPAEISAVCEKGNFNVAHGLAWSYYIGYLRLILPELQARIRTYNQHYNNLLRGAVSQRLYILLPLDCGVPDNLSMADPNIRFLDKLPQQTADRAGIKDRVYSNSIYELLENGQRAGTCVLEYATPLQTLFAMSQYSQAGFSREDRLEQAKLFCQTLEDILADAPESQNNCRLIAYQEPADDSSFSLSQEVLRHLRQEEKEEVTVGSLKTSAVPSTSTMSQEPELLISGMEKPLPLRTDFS

For the compound `Cc1cc(F)c(Cl)cc1NC(=O)C(=O)Nc1c[nH]c2cccnc12` [Compound 136, N1-(5-chloro-4-fluoro-2-methylphenyl)-N2-(1H-pyrrolo[3,2-b]pyridin-3-yl)oxalamide], the EC50 – broadly, the midpoint of the concentration-response curve – (class symbols) is 5 to 100 µM.

For the compound `CC(CNC(=O)C(=O)Nc1c[nH]c2cccnc12)Oc1ccc(C(F)(F)F)cc1` (stereo not shown) [Compound 137, N1-(1H-pyrrolo[3,2-b]pyridin-3-yl)-N2-(2-(4-(trifluoromethyl)phenoxy)propyl)oxalamide], the EC50 (class symbols) was in the range of 5 to 100 µM.

`Cc1c(CNC(=O)C(=O)Nc2c[nH]c3cccnc23)cccc1C(F)(F)F` [Compound 138, N1-(2-methyl-3-(trifluoromethyl)benzyl)-N2-(1H-pyrrolo[3,2-b]pyridin-3-yl)oxalamide]: the EC50 (class symbols) was 0.2 to 1 µM.

Where the note is “numeric bounds”, `O=C(NCCc1ncc(C(F)(F)F)cc1Cl)C(=O)Nc1c[nH]c2cccnc12` [Compound 139, N1-(2-(3-chloro-5-(trifluoromethyl)pyridin-2-yl)ethyl)-N2-(1H-pyrrolo[3,2-b]pyridin-3-yl)oxalamide] came in with an EC50 above 30 µM.

`O=C(NCc1ccc(Cl)cc1C(F)(F)F)C(=O)Nc1c[nH]c2cccnc12` [Compound 140, N1-(4-chloro-2-(trifluoromethyl)benzyl)-N2-(1H-pyrrolo[3,2-b]pyridin-3-yl)oxalamide] had a half-maximal effective concentration (EC50) (class symbols) of 1 to 5 µM.

As to `O=C(NCc1cccc(N2CCCCC2)c1)C(=O)Nc1c[nH]c2cccnc12` [Compound 141, N1-(3-(piperidin-1-yl)benzyl)-N2-(1H-pyrrolo[3,2-b]pyridin-3-yl)oxalamide], the EC50 (numeric bounds) was above 30 µM.

In turn, `Cc1c(CNC(=O)C(=O)Nc2c[nH]c3ccncc23)cccc1C(F)(F)F` [Compound 142, N1-(2-methyl-3-(trifluoromethyl)-benzyl)-N2-(1H-pyrrolo[3,2-c]pyridin-3-yl)oxalamide] registered an EC50 (class symbols) of 0.2 to 1 µM.

In the case of `CC(NC(=O)C(=O)Nc1c[nH]c2cccnc12)c1ccc(C(F)(F)F)cc1` (stereo not shown) [Compound 143, N1-(1H pyrrolo[3,2-b]pyridin-3-yl)-N2-(1-(4-(trifluoromethyl)phenyl)ethyl)oxalamide], for the setting “class symbols”, the EC50 was 1 to 5 µM.

Regarding `COc1ccc(CNC(=O)C(=O)Nc2c[nH]c3cccnc23)cc1C(F)(F)F` [Compound 144, N1-(4-methoxy-3-(trifluoromethyl)benzyl)-N2-(1H-pyrrolo[3,2-b]pyridin-3-yl)oxalamide], the EC50 (class symbols) is 1 to 5 µM.

As to `O=C(NCc1ccc(Cl)c(C(F)(F)F)c1)C(=O)Nc1c[nH]c2cccnc12` [Compound 145, N1-(4-chloro-3-(trifluoromethyl)benzyl)-N2-(1H-pyrrolo[3,2-b]pyridin-3-yl)oxalamide], the EC50 (class symbols) is 1 to 5 µM.

In the case of `O=C(NCC1CCCC(F)(F)C1)C(=O)Nc1c[nH]c2ccncc12` (stereo not shown) [Compound 146, N1-((3,3-difluorocyclohexyl)-methyl)-N2-(1H-pyrrolo[3,2-c]pyridin-3-yl)oxalamide], the EC50 (numeric bounds) was above 30 µM.

For the setting “class symbols”, `O=C(NCc1ccc(F)c(OC(F)(F)F)c1)C(=O)Nc1c[nH]c2ccncc12` [Compound 148, N1-(4-fluoro-3-(trifluoromethoxy)-benzyl)-N2-(1H-pyrrolo[3,2-c]pyridin-3-yl)oxalamide] returned an EC50 of 0.2 to 1 µM.

For the setting “numeric bounds”, `O=C(NCCc1cccc(C(F)(F)F)c1)C(=O)Nc1c[nH]c2cccnc12` [Compound 149, N1-(1H-pyrrolo[3,2-b]pyridin-3-yl)-N2-(3-(trifluoromethyl)phenethyl)oxalamide] showed a concentration for a half-maximal effect (EC50) above 30 µM.

With `O=C(Nc1ccc(OCC(F)(F)F)nc1)C(=O)Nc1c[nH]c2cccnc12` [Compound 150, N1-(1H-pyrrolo[3,2-b]pyridin-3-yl)-N2-(6-(2,2,2-trifluoroethoxy)pyridin-3-yl)oxalamide], the 50% effective concentration (EC50) (numeric bounds) is above 30 µM.

`O=C(NCc1cccc(OC(F)(F)F)c1)C(=O)Nc1c[nH]c2cccnc12` [Compound 151, N1-(1H pyrrolo[3,2-b]pyridin-3-yl)-N2-(3-(trifluoro-methoxy)benzyl)oxalamide] gave an EC50 (numeric bounds) above 30 µM.

In turn, `O=C(NCCc1ccc(C(F)(F)F)cc1)C(=O)Nc1c[nH]c2ccncc12` [Compound 153, N1-(1H-pyrrolo[3,2-c]pyridin-3-yl)-N2-(4-(trifluoromethyl)-phenethyl)-oxalamide] displayed a 50% effective concentration (EC50) (class symbols) of 0.2 to 1 µM.

In turn, `O=C(NCC1CCc2ccccc2O1)C(=O)Nc1c[nH]c2ccncc12` (stereo not shown) [Compound 154, N1-(chroman-2-ylmethyl)-N2-(1H-pyrrolo[3,2-c]pyridin-3-yl)oxalamide] came in with an EC50 (numeric bounds) above 30 µM.

Regarding `O=C(NCC1(c2ccccc2)CC1)C(=O)Nc1c[nH]c2ccncc12` [Compound 156, N1-((1-phenylcyclopropyl)-methyl)-N2-(1H-pyrrolo[3,2-c]pyridin-3-yl)oxalamide], the 50% effective concentration (EC50) (numeric bounds) is above 30 µM.

Under “class symbols”, `Cc1ccc(OCCNC(=O)C(=O)Nc2c[nH]c3ccncc23)cc1C` [Compound 157, N1-(2-(3,4-dimethylphenoxy)ethyl)-N2-(1H-pyrrolo[3,2-c]pyridin-3-yl)oxalamide] showed an EC50 of 5 to 100 µM.

Where the note is “class symbols”, `O=C(NCc1cccc2c1OC(F)(F)O2)C(=O)Nc1c[nH]c2ccncc12` [Compound 158, N1-((2,2-difluorobenzo-[d][1,3]dioxol-4-yl)methyl)-N2-(1H-pyrrolo[3,2-c]pyridin-3-yl)oxalamide] showed an EC50 of 1 to 5 µM.

For the compound `O=C(NCCOc1ccc(C(F)(F)F)cc1)C(=O)Nc1c[nH]c2ccncc12` [Compound 159, N1-(1H-pyrrolo[3,2-c]pyridin-3-yl)-N2-(2-(4-(trifluoromethyl)-phenoxy)ethyl)oxalamide], the concentration for a half-maximal effect (EC50) (class symbols) was in the range of 1 to 5 µM.

Where the note is “numeric bounds”, `O=C(NCC1CCC(F)(F)CC1)C(=O)Nc1c[nH]c2ccncc12` [Compound 160, N1-((4,4-difluorocyclohexyl)-methyl)-N2-(1H-pyrrolo[3,2-c]pyridin-3-yl)oxalamide] had an EC50 above 30 µM.

For `O=C(NCCC1(C(F)(F)F)CC1)C(=O)Nc1c[nH]c2ccncc12` [Compound 161, N1-(1H-pyrrolo[3,2-c]pyridin-3-yl)-N2-(2-(1-(trifluoromethyl)-cyclopropyl)-ethyl)oxalamide], the EC50 (numeric bounds) was above 30 µM.

Where the note is “class symbols”, `Cc1cc(F)c(Cl)cc1NC(=O)C(=O)Nc1c[nH]c2ccncc12` [Compound 162, N1-(5-chloro-4-fluoro-2-methylphenyl)-N2-(1H-pyrrolo[3,2-c]pyridin-3-yl)oxalamide] registered an EC50 of 1 to 5 µM.

In turn, `O=C(NCC(F)(F)c1ccccc1)C(=O)Nc1c[nH]c2ccncc12` [Compound 163, N1-(2,2-difluoro-2-phenylethyl)-N2-(1H-pyrrolo[3,2-c]pyridin-3-yl)oxalamide] yielded an EC50 (numeric bounds) above 30 µM.

As to `CC(CNC(=O)C(=O)Nc1c[nH]c2ccncc12)Oc1ccc(C(F)(F)F)cc1` (stereo not shown) [Compound 164, N1-(1H-pyrrolo[3,2-c]pyridin-3-yl)-N2-(2-(4-(trifluoromethyl)-phenoxy)propyl)-oxalamide], the EC50 (class symbols) was in the range of 1 to 5 µM.

`COc1ccc(CNC(=O)C(=O)Nc2c[nH]c3ccncc23)cc1C(F)(F)F` [Compound 165, N1-(4-methoxy-3-(trifluoromethyl)-benzyl)-N2-(1H-pyrrolo[3,2-c]pyridin-3-yl)oxalamide] showed a concentration giving a half-maximal response (EC50) (class symbols) of 0.2 to 1 µM.

As for `O=C(NCCc1ncc(C(F)(F)F)cc1Cl)C(=O)Nc1c[nH]c2ccncc12` [Compound 166, N1-(2-(3-chloro-5-(trifluoromethyl)-pyridin-2-yl)ethyl)-N2-(1H-pyrrolo[3,2-c]pyridin-3-yl)oxalamide], the EC50 (class symbols) lay within 5 to 100 µM.
